Results: patent publication US9487489B2, “Halogen-substituted pyrazole derivatives as pest-control agents” (BAYER CROPSCIENCE AKTIENGESELLSCHAFT, priority 2013, dated 2016)

What was measured:
[1] = logP determination by HPLC on a reversed-phase column (C18), EEC Directive 79/831 Annex V.A8; type: physicochemical; conditions: HPLC on reversed-phase column (C18), acetonitrile/water with formic acid, EEC Directive 79/831 Annex V.A8
In short: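 Per EEC 79/831 Annex V.A8, values derive from HPLC retention at 2.0 ml/min and 55° C on a 50*4.6 C18 column. The 10→95% acetonitrile gradient (0.1%/0.09% formic acid) lasted 4.25 min plus a 1.25 min hold; mass detection was by MSD.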

[2] = tested on: engorged adult female cattle ticks (Boophilus microplus); test: Boophilus microplus injection test (BOOPMI Inj); type: in vivo; conditions: application rate 20 μg/animal; injection into abdomen; assessed after 7 days
In short: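 Efficacy is read at 7 days as fertile egg laying (100% = no fertile eggs laid; 0% = all eggs fertile), with eggs of unclear fertility stored until larvae hatch at about 42 days. Five engorged adult females per dose each receive an abdominal injection of 1 μl compound dissolved in DMSO.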

[3] = tested on: adult cat fleas (Ctenocephalides felis); test: Ctenocephalides felis oral test (CTECFE); type: in vivo; conditions: application rate 100 ppm in citrated cattle blood; after 2 days
In short: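 Mortality read at 2 days as percent of fleas killed. Compound predissolved in DMSO, diluted into citrated cattle blood and offered to roughly 20 unfed adult C. felis via parafilm membrane feeder.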

[4] = tested on: L1 larvae of the Australian sheep blowfly (Lucilia cuprina); test: Lucilia cuprina test (LUCICU); type: in vivo; conditions: application rate 100 ppm; after 2 days
In short: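 Percent mortality read at 2 days; 100% = all larvae killed, 0% = none. Test compound, predissolved in DMSO and water-diluted to the wanted level, was mixed into minced horsemeat holding roughly 20 first-instar larvae.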

[5] = tested on: adult houseflies (Musca domestica); test: Musca domestica test (MUSCDO); type: in vivo; conditions: application rate 100 ppm; after 2 days
Method: F. Musca domestica Test (MUSCDO)
Solvent: dimethyl sulphoxide
To produce a suitable preparation of active compound, 10 mg of active compound are mixed with 0.5 ml of dimethyl sulphoxide, and the concentrate is diluted with water to the desired concentration.
Vessels containing a sponge treated with sugar solution and the active compound preparation of the desired concentration are populated with 10 adult houseflies (Musca domestica).
After 2 days, the kill in % is determined. 100% means that all of the flies have been killed; 0% means that none of the flies have been killed.

[6] = tested on: larvae of the mustard beetle (Phaedon cochleariae); test: Phaedon cochleariae spray test (PHAECO); type: in vivo; conditions: Chinese cabbage leaf discs, after 7 days
In short: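 Kill of mustard beetle larvae is read as % mortality 7 days after spraying. Spray liquid: active compound in acetone plus dimethylformamide, brought up with water holding 1000 ppm alkylaryl polyglycol ether emulsifier and diluted further in emulsifier-water.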

[7] = tested on: caterpillars of the armyworm (Spodoptera frugiperda); test: Spodoptera frugiperda spray test (SPODFR); type: in vivo; conditions: maize leaf discs, after 7 days
In short: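 Percent kill read at day 7 on caterpillar-infested maize leaf discs. Discs were first sprayed with aqueous emulsifier-containing (1000 ppm) preparations made from acetone/dimethylformamide solutions, and dried. Scale: 0% none dead, 100% all dead.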

[8] = tested on: greenhouse red spider mite (Tetranychus urticae); test: Tetranychus urticae spray test, OP-resistant (TETRUR); type: in vivo; conditions: bean leaf discs, after 6 days
In short: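 Percent kill, scored 6 days post-spray (0% = none dead, 100% = all dead), on Phaseolus vulgaris leaf discs infested with every life stage of the OP-resistant spider mite. Compound dissolved in acetone plus DMF, diluted to test concentration with emulsifier-containing water (1000 ppm).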

[9] = tested on: adult cat fleas (Ctenocephalides felis); test: Ctenocephalides felis in vitro contact test with adult cat fleas (T1); conditions: after 48 h
In short: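 Adult cat fleas (Ctenocephalides felis), 5-10 per tube, were exposed to the inner surface of 25 ml test tubes coated with compound in acetone. Tubes were incubated lying flat under ambient conditions. Efficacy was then read by standing tubes upright and knocking the fleas to the floor. Fleas that stayed motionless or moved uncoordinatedly counted as dead or moribund, where 100% means all fleas dead or moribund and 0% means none harmed.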

[10] = tested on: adult dog ticks (Rhipicephalus sanguineus); test: Rhipicephalus sanguineus in vitro contact test with adult brown dog ticks (T2); conditions: after 48 h
Method: T2. Rhipicephalus sanguineus-in vitro Contact Tests with Adult Brown Dog Ticks
For the coating of the test tubes, initially 9 mg of active compound are dissolved in 1 ml of acetone p.a. and then diluted with acetone p.a. to the desired concentration. By turning and rocking on an orbital shaker (2 h of rocking rotation at 30 rpm), 250 μl of the solution are distributed homogeneously on the internal walls and the floor of a 25 ml test tube. At 900 ppm active compound solution and 44.7 cm^2 internal surface, an area dose of 5 μg/cm^2 is achieved for homogeneous distribution.
After evaporation of the solvent, the tubes are populated with 5-10 adult dog ticks (Rhipicephalus sanguineus), sealed with a perforated plastic lid and incubated in a horizontal position in the dark at room temperature and ambient humidity. After 48 h, the efficacy is determined. To this end, the ticks are knocked to the floor of the tube and incubated on a hotplate at 45-50° C. for at most 5 min Ticks which remain motionless on the floor or move in an uncoordinated manner such that they are not able to deliberately avoid the heat by climbing upwards are considered to be dead or moribund.
An efficacy of 100% means that all ticks were dead or moribund. 0% efficacy means that none of the ticks had been damaged.

Compound | logP [1] | efficacy (laying of fertile eggs) [2] [%] | efficacy (kill in %) [3] [%] | efficacy (kill in %) [4] [%] | efficacy (kill in %) [5] [%] | efficacy in % ([6]; application rate 100 g/ha) [%] | efficacy in % ([7]; application rate 100 g/ha) [%] | efficacy in % ([8]; application rate 100 g/ha) [%] | efficacy (dead or moribund fleas) ([9]; application rate 5 μg/cm^2) [%] | efficacy (dead or moribund ticks) ([10]; application rate 1 μg/cm^2) [%] | efficacy (dead or moribund ticks) ([10]; application rate 5 μg/cm^2) [%] | efficacy in % ([6]; application rate 500 g/ha) [%] | efficacy in % ([7]; application rate 500 g/ha) [%] | efficacy in % ([8]; application rate 500 g/ha) [%] | efficacy (dead or moribund fleas) ([9]; application rate 1 μg/cm^2) [%]
COc1ccc(-c2cnn(-c3c(C(F)(F)F)c(C(F)(F)C(F)(F)F)nn3C)c2)cc1C(=O)NC1CC1 [Ic-68] | 3.86 | 100 | 100 | 100 | 80 | 100 | 83 | 100 | 100 | 100 | – | – | – | – | –
Cn1nc(C(F)(F)C(F)(F)F)c(C(F)(F)F)c1-n1cc(-c2ccc(Cl)c(C(=O)Nc3ccc(Cl)cc3)c2)cn1 [Ic-25] | 4.93 | 100 | 95 | 100 | 90 | 100 | 100 | – | – | 100 | 100 | – | – | – | –
Cn1nc(C(F)(F)C(F)(F)F)c(C(F)(F)F)c1-n1cc(-c2ccc(Cl)c(C(=O)Nc3ccccn3)c2)cn1 [Ic-140] | – | 100 | 100 | 100 | 90 | – | – | – | 100 | – | – | 100 | 100 | 100 | 100
Cn1nc(C(F)(F)C(F)(F)F)c(C(F)(F)F)c1-n1cc(-c2ccc(Cl)c(C(=O)NC3CC3)c2F)cn1 [Ic-106] | – | 100 | 100 | 100 | 100 | – | – | – | – | – | 100 | 100 | 83 | – | –
COc1ccc(-c2cnn(-c3c(C(F)(F)F)c(C(F)(F)C(F)(F)F)nn3C)c2)cc1C(=O)NC1(C#N)CC1 [Ic-67] | 3.77 | 100 | 100 | 100 | 95 | 100 | – | 100 | – | 80 | – | – | – | – | –
Cn1nc(C(F)(F)C(F)(F)F)c(C(F)(F)F)c1-n1cc(-c2cc(C(=O)NC3(C#N)CC3)ncc2F)cn1 [Ic-73] | – | 100 | 100 | 100 | 90 | – | 100 | 100 | – | 80 | 80 | 100 | 100 | – | –
Cn1nc(C(F)(F)C(F)(F)F)c(C(F)(F)F)c1-n1cc(-c2cc(Cl)cc(C(=O)NC3(C#N)CC3)c2)cn1 [Ic-43] | – | 100 | 100 | 100 | 100 | – | – | – | – | 100 | – | 100 | 100 | – | –
Cn1nc(C(F)(F)C(F)(F)F)c(C(F)(F)F)c1-n1cc(-c2cc(C(=O)NC3CC3)ccc2Cl)cn1 [Ic-46] | – | 100 | 100 | 100 | 100 | – | – | – | – | 100 | – | 100 | 100 | – | –
